Test results from patent US20250271361A1, “SUPERCONTINUUM INTRINSIC FLUORESCENCE IMAGING” (The Board of Trustees of the University of Illinois, priority 2024, published 2025).

Assays:
live BHK-21 cells [1] = assay: time-lapse kinetic imaging assay (single-cell pharmacokinetic SOMI) of hamster kidney cells after transient exposure; conditions: for cellular uptake by endocytosis via THG-visible nanovesicles: comparative kinetic assays of two mitochondrial uncouplers
Protocol: (§1) In the above experiments (e.g., in the procedures used to generate the images described above), the following materials and methods were provided or performed. Adherent Syrian golden hamster kidney fibroblast cells BHK-21 (clone 13, ATCC CCL-10) were cultured in phenol red-free Eagle's Minimum Essential Medium (EMEM) supplemented with 10% FBS, 1% penicillin-streptomycin-amphotericin B (PSA), and 2.5 mM L-Glutamine at 37° C. under 5% CO2, and atmospheric O2 conditions. Before imaging, 1 mL of trypsinized cells was resuspended in 1 mL of 1×TrypLE™ Select Enzyme cell dissociation reagent (TFS, Cat #12563029). The cells were plated on poly-D-lysine coated 35-mm diameter glass-bottom imaging dishes and maintained inside a humidified incubator with 5% CO2 and 21% O2 conditions at 37° C. The incubation time varied between 1-6 hours while the culture media might be supplemented with specific drugs or labeling agents at […] concentrations. The cells were imaged within 10 min of being taken out of the incubator.
Large area or 3D SOMI was enabled by a motorized sample stage. Without moving the stage, time-lapse imaging of dynamic phenomenon or frame-averaged imaging of static samples were conducted in a constant field-of-view. Single-cell pharmacokinetics imaging was performed in a time-lapse SOMI of 200-frame period at the center of a 35-mm diameter glass-bottom imaging culture dish with 2 mL culture media of live BHK-21 cells. During the imaging near the 50-frame timepoint, 0.1 mL of preprepared concentrated solution of a drug (BAM15/FCCP) or labeling agent (AP3) was injected in ˜1 s by a mounted pipette into the center of the dish, attaining an ending/equilibrium concentration of […]. The fluorescence from AP3 in a segmented empty space among the cells was used to detect the transient concentration profile of injected drugs and labeling agents during the time-lapse imaging.

live BHK-21 cells [2] = conditions: statement of general knowledge, explained by the kinetic assay; cited from earlier work
[3] = test system: hamster kidney fibroblast cells BHK-21; assay: SCIFI/SOMI endpoint (snapshot) imaging assay of in vitro hamster kidney cells treated with a drug or imaging agent; assay type: cell-based, Syrian golden hamster
Protocol: Next, the interaction between in vitro hamster kidney cells with a drug or imaging agent were evaluated.
Power-dependent “imaging” experiments were conducted on the prepared solutions and coverslip across the six colors by an excitation that would be standardized for biological imaging. […] For the 6-color SOMI images (1024×1024 pixels) collected from a biological sample, the raw intensity image of each color was converted into a photon-count image (unit: photon/pulse) using the established (calibrated) relation for that color at the same photomultiplier gain. Then, some (2-72) discernable single cells or cell clusters were manually segmented in the 6-color photon-count images. Finally, the SOMI intensity profiles of segmented single cells (or cell clusters) averaged over the corresponding pixels were obtained after a background subtraction. Specifically, the background of the culture medium in the empty space among the segmented cells was subtracted for 2D cell culture samples while the background with blocked illumination was subtracted for all 3D (tissue) samples.
In contrast to reductionism-based imaging, the lack of FLIM capability for general fluorescence imaging presented another challenge that may have contributed to the low popularity of comparative systems biology-based imaging strategies. Due to the high dynamic range of SOMI in gentle biological imaging, comparative photon counting of FLIM with low dynamic range (<0.2 photon/pulse, typically) cannot be used. To recover this capability, time-resolved photon counts were determined using computational photon counting, which provides single-photon accuracy for signals with high dynamic range. The output of three analog output photomultipliers for 4PAF, 3PAF, and 2PAF was optionally amplified with a high-speed transimpedance amplifier (C5594, Hamamatsu), and digitized at 2 GS/s with a high-speed digitizer (ATS9373, AlazarTech). Digitized values were saved, and photon-counting and lifetime information was computed in post-processing using custom MATLAB scripts (Mathworks). FLIM for the 2PAF and 3PAF colors were validated using NADH, FAD, and other standard dyes. To calibrate computational photon counting for 4PAF, Trp solutions from 0 to 50 mM were examined and a single-photon peak threshold was determined based on the peak height histogram to ensure a linear relationship between intensity and concentration over this range. After computational photon counting, mean fluorescence lifetime and phasor components g and s were determined by phasor analysis. For single-cell quantification, all fluorescence decays within a segmented cell were summed together, and one mean fluorescence lifetime was estimated from the total decay, along with one g and one s value.
as §1

[4] = apoptotic hamster kidney cells, endpoint assay

## Fc1ccccc1Nc1nc2nonc2nc1Nc1ccccc1F [BAM15]
Live BHK-21 cells [1]; at a high concentration, transient exposure
  cytotoxicity sensed in real-time by 4PIF: confirmed
Live BHK-21 cells [1]; both BAM15 concentrations, kinetic assay
  rise in FAD* coinciding with sudden decrease in ETC: ~10 fold
Live BHK-21 cells [1]; comparative kinetic assays
  induced FAD* in cytoplasm, BAM15 compared with FCCP: surprisingly larger
Live BHK-21 cells [1]
  cellular uptake by endocytosis via THG-visible nanovesicles: might enable cellular uptake
Live BHK-21 cells [2]
  toxicity in mitochondrial uncoupling, compared with FCCP: less toxic than FCCP
[3]; in vitro hamster kidney cells, endpoint assay, control 32%
  LFI (lipofuscin fluorescence independence extent): 44%

## N#CC(C#N)=NNc1ccc(OC(F)(F)F)cc1 [FCCP]
Live BHK-21 cells [1]
  cellular uptake by endocytosis via THG-visible nanovesicles: not

## CN[C@@H]1C[C@H]2O[C@@](C)([C@@H]1OC)n1c3ccccc3c3c4c(c5c6ccccc6n2c5c31)C(=O)NC4 [STS, staurosporine]
Live BHK-21 cells [1]; transient exposure, kinetic assay
  color through which cells respond: 3PIF/NADH but not THG
[3]; [4]
  LFI versus treatment-free control: retained a low LFI
  ORR (optical redox ratio) versus treatment-free control: reduced ORR
[3]; in vitro STS-induced apoptosis confirmed by single-cell morphological change
  LFR (LOP-to-FAD ratio): increase in LFR
[3]; in vitro hamster kidney cells, endpoint assay, different fields
  apoptosis via modified cell morphology: induced apoptosis
[3]; in vitro hamster kidney cells, label-free biomarker of apoptosis
  3PIF (NADH) in 6-color profile: peaked
